Test results from article PMC9136576 (Acta Pharmaceutica Sinica. B, 2021).

What was measured:
Assay in all cases: H2O2 reduction peroxidase assay
Assay type in all cases: biochemical
Conditions in all cases: covalent; […] protein, […] H2O2, […] min preincubation, room temperature
rhPRDX2 = target: T1, rhPRDX2 (Homo sapiens, UniProt P32119)
T1 sequence (P32119 2-198): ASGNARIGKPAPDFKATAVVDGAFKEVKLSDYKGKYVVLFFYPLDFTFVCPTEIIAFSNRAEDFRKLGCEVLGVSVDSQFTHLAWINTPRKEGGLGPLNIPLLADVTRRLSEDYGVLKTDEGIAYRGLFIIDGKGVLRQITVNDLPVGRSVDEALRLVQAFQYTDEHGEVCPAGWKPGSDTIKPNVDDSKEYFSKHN

rhPRDX4 = target: T2, rhPRDX4 (Homo sapiens, UniProt Q13162)
T2 sequence (Q13162 38-271): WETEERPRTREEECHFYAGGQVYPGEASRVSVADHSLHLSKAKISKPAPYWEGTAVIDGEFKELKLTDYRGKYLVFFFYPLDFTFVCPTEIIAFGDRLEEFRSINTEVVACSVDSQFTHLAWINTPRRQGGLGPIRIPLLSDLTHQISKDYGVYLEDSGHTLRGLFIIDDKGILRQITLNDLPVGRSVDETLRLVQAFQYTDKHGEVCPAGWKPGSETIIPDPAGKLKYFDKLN

rhPRDX6 = target: T3, rhPRDX6 (Homo sapiens, UniProt P30041)
T3 sequence (P30041 2-224): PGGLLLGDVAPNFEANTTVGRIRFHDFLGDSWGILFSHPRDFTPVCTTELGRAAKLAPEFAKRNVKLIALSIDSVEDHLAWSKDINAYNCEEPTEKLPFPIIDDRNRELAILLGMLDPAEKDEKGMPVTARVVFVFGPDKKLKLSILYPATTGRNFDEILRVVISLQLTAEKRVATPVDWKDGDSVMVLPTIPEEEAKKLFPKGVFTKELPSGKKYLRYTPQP

CC1=C(O)C(=O)C=C2C1=CC=C1[C@@]2(C)CC[C@@]2(C)[C@@H]3C[C@](C)(C(=O)O)CC[C@]3(C)CC[C@]12C [celastrol]
% inhibition at 5 μmol/L (rhPRDX2): celastrol could significantly suppress the peroxidase activity of rhPRDXs for H2O2 reduction
% inhibition at 5 μmol/L (rhPRDX4): celastrol could significantly suppress the peroxidase activity of rhPRDXs for H2O2 reduction
% inhibition at 5 μmol/L (rhPRDX6): celastrol could significantly suppress the peroxidase activity of rhPRDXs for H2O2 reduction
